This passage reports IC50 results from patent US7964643B2, “Aryl alkyl sulfonamides as therapeutic agents for the treatment of bone conditions” (The University Court of the University of Aberdeen, priority 2004, dated 2011).

The subject of this assay is J774 macrophage cell line. As to the kind of experiment: Alamar Blue macrophage J774 viability assay. The format is cell-based. The settings on record: Mus musculus, J774, 72 h, 72 hours culture with compound, Alamar Blue, read-out: IC50 (J774). As for the experimental part: Initial screening of candidate compounds was performed using viability assays, on cultures of the macrophage cell line J774, which have been used before as a model system for osteoclast survival (see, e.g., Luckman et al., 1998). The assays are based on the survival of the J774 macrophage cell line; macrophages are closely related to osteoclasts, and contain similar high levels of esterase activity.
J774 cells were plated at 10^4 cells per well in 150 μL αMEM (α Modified Eagle Medium) in 96-well plates and grown overnight. The next day, compounds were added to the cultures, and culture was continued for another 72 hours. At the end of the culture period cell survival was determined using an Alamar Blue assay as previously described (see, e.g., Nociari et al., 1998).
Alamar Blue is an oxidation-reduction sensitive indicator. The dye itself is in the oxidised state, which is blue and non-fluorescent. The dye can accept electrons from reducing species, such as NADPH and FADH, to form a reduced dye species, which is red and fluorescent. Thus the transformation from oxidised form to reduced form can be measured by fluorimetric or colourimetric means. For fluorescence measurements, 530-560 nm excitation and 590 nm emission wavelengths are typically used. For colourimetric measurements, absorbance is measured at 570 nm (reduced form) and 600 nm (oxidised form) and a simple calculation performed to determine the relative quantities of the two species.
A high ratio of the reducing species, NADPH and FADH, to the corresponding oxidised species, NADP and FAD, is an indicator that cells are proliferating and viable. A low ratio indicates cells that are quiescent or non-viable.
Briefly, Alamar Blue (Biosource International) was added undiluted to the each well (1:10 v/v, 15 μL). The plate was incubated at 37° C. for 3-4 hours and the fluorescence was measured at 570 nm, with a 25 nm bandwidth. A high reading indicated cells with normal viability, and a low reading indicates cells that have been damaged and are no longer proliferating normally. The controls gave a high fluorescence reading, indicating a high number of live, healthy cells. A potent test compound gave a low fluorescence reading. The average results for each test compound (n=5) were expressed as a percent (%) of the average control value.
Addition of Compounds. All of the compounds studied were made up as 100 mM solutions in DMSO. These stock solutions were then diluted 100 or 1000× in culture medium (αMEM). From these 1 mM or 100 μM solutions, convenient quantities (3-15 μL) were added directly to the wells so as to give the desired final compound concentration.
With `O=C(O)c1ccc(-c2ccc(S(=O)(=O)NCCCCCO)cc2)cc1` [ABD-271, 4′-Carboxybiphenyl-4-sulfonic acid-(5-hydroxypentyl)-amide], the half-maximal inhibitory concentration (IC50) was 33 ± 3 µM. Consider `O=[N+]([O-])c1ccccc1-c1ccc(S(=O)(=O)NCCCCO)c(C(F)(F)F)c1` [ABD-365, 2′-Nitro-3-trifluoromethylbiphenyl-4-sulfonic acid-(4-hydroxybutyl)-amide], for which the IC50 turned out to be 0.3 ± 0.1 µM.

For the compound `COc1ccccc1-c1ccc(S(=O)(=O)NCCCCCO)cc1` [ABD-267, 2′-Methoxybiphenyl-4-sulfonic acid-(5-hydroxypentyl)-amide], the IC50 stood at 31 ± 4 µM. As for `O=S(=O)(NCCCCCO)c1ccc(-c2ccccc2)cc1` [ABD-180, Biphenyl-4-sulfonic acid-(5-hydroxypentyl)-amide], the IC50 was 20 ± 3 µM. As for `O=S(=O)(NCCCCCO)c1ccc(-c2ccc(-c3ccccc3)cc2)cc1` [ABD-279, p-Terphenyl-4-sulfonic acid-(5-hydroxypentyl)-amide], the IC50 worked out at 33 ± 5 µM. In the case of `Cc1cc(S(=O)(=O)NCCCCO)ccc1-c1ccc(F)cc1` [ABD-320, 4′-Fluoro-2-methylbiphenyl-4-sulfonic acid-(4-hydroxybutyl)-amide] it was 2.5 ± 0.2 µM; in that of `O=S(=O)(NCCCCO)c1ccc(-c2ccc(Br)cc2)cc1` [ABD-201, 4′-Bromobiphenyl-4-sulfonic acid-(4-hydroxybutyl)-amide], 9 ± 2 µM.

Consider `CN(C)c1ccc(-c2ccc(S(=O)(=O)NCCCCCO)cc2)cc1` [ABD-276, 4′-Dimethylaminobiphenyl-4-sulfonic acid-(5-hydroxypentyl)-amide], for which the IC50 was 32 ± 3 µM.

As to `O=S(=O)(NCCCCCO)c1ccc(-c2ccc(F)cc2F)cc1` [ABD-248, 2′,4′-Difluorobiphenyl-4-sulfonic acid-(5-hydroxypentyl)-amide], the IC50 turned out to be 4.5 ± 1 µM.

Turning to `O=S(=O)(NCCCCO)c1ccc(-c2ccc(F)cc2F)cc1Cl` [ABD-325, 3-Chloro-2′,4′-difluoro-biphenyl-4-sulfonic acid-(4-hydroxybutyl)-amide], the IC50 was determined as 2.5 ± 0.5 µM. As to `O=S(=O)(NCCCCCO)c1ccc(-c2ccc(F)c(F)c2)cc1` [ABD-257, 3′,4′-Difluorobiphenyl-4-sulfonic acid-(5-hydroxypentyl)-amide], the IC50 was 16 ± 3 µM. On to `CCOc1ccc(-c2ccc(S(=O)(=O)NCCCCCO)cc2)cc1` [ABD-297, 4′-Ethoxybiphenyl-4-sulfonic acid-(5-hydroxypentyl)-amide], for which the IC50 amounted to 35 ± 5 µM. In the case of `O=S(=O)(NCCCCO)c1ccc(-c2ccccc2I)cc1` [ABD-275, 2′-Iodobiphenyl-4-sulfonic acid-(4-hydroxybutyl)-amide], the IC50 was found to be 5.5 ± 1.5 µM.

For `N#Cc1ccc(-c2ccc(S(=O)(=O)NCCCCCO)cc2)cc1` [ABD-262, 4′-Cyanobiphenyl-4-sulfonic acid-(5-hydroxypentyl)-amide], the IC50 came out at 12 ± 2 µM. In the case of `Nc1ccccc1-c1ccc(S(=O)(=O)NCCCCO)cc1` [ABD-263, 2′-Aminobiphenyl-4-sulfonic acid-(4-hydroxybutyl)-amide] it was 24 ± 3 µM; in that of `O=S(=O)(NCCCCO)c1ccc(-c2ccccc2)cc1C(F)(F)F` [ABD-310, 3-Trifluoromethylbiphenyl-4-sulfonic acid-(4-hydroxybutyl)-amide], 4.5 ± 1 µM. Regarding `O=S(=O)(NCCCCO)c1ccc(-c2ccc(Br)cc2F)cc1` [ABD-265, 4′-Bromo-2′-fluorobiphenyl-4-sulfonic acid-(4-hydroxybutyl)-amide], the IC50 was 3 ± 1 µM. On to `O=S(=O)(NCCCCO)c1ccc(-c2ccc(F)cc2F)cc1OC(F)(F)F` [ABD-360, 2′,4′-Difluoro-3-trifluoromethoxybiphenyl-4-sulfonic acid-(4-hydroxybutyl)-amide], for which the IC50 is 1 ± 0.3 µM.

For `O=S(=O)(NCCCCCO)c1ccc(-c2ccccc2C(F)(F)F)cc1` [ABD-284, 2′-Trifluoromethylbiphenyl-4-sulfonic acid-(5-hydroxypentyl)-amide], the IC50 was 6 ± 1.5 µM.

As to `O=S(=O)(NCCCCO)c1ccc(-c2ccc(C(F)(F)F)cc2)cc1` [ABD-246, 4′-Trifluoromethylbiphenyl-4-sulfonic acid-(4-hydroxybutyl)-amide], the IC50 was 5 ± 1 µM.

For `CSc1ccc(-c2ccc(S(=O)(=O)NCCCCO)cc2)cc1` [ABD-258, 4′-Methylthiobiphenyl-4-sulfonic acid-(4-hydroxybutyl)-amide], the IC50 turned out to be 35 ± 6 µM. With `Cc1ccc(-c2ccc(S(=O)(=O)NCCCCCO)cc2)cc1` [ABD-260, 4′-Methylbiphenyl-4-sulfonic acid-(5-hydroxypentyl)-amide] the figure was 12 ± 2 µM.

As to `O=[N+]([O-])c1cccc(-c2ccc(S(=O)(=O)NCCCCO)cc2)c1` [ABD-226, 3′-Nitrobiphenyl-4-sulfonic acid-(4-hydroxybutyl)-amide], the IC50 turned out to be 33 ± 3 µM. Turning to `O=S(=O)(NCCCCCO)c1ccc(-c2ccc(O)cc2)cc1` [ABD-277, 4′-Hydroxybiphenyl-4-sulfonic acid-(5-hydroxypentyl)-amide], the IC50 was 21 ± 3 µM.

For `O=[N+]([O-])c1ccccc1-c1ccc(S(=O)(=O)NCCCCO)cc1` [ABD-227, 2′-Nitrobiphenyl-4-sulfonic acid-(4-hydroxybutyl)-amide], the IC50 was found to be 2 ± 0.5 µM. With `CC(=O)c1ccc(-c2ccc(S(=O)(=O)NCCCCCO)cc2)cc1` [ABD-261, 4′-Acetylbiphenyl-4-sulfonic acid-(5-hydroxypentyl)-amide] the figure was 11 ± 2 µM. With `O=S(=O)(NCCCCO)c1ccc(-c2ccc(C(F)(F)F)cc2)c(F)c1` [ABD-294, 2-Fluoro-4′-trifluoromethylbiphenyl-4-sulfonic acid-(4-hydroxybutyl)-amide] the figure was 5 ± 1 µM; with `O=S(=O)(NCCCCO)c1ccc(-c2ccc(OC(F)(F)F)cc2)cc1` [ABD-306, 4′-Trifluoromethoxybiphenyl-4-sulfonic acid-(4-hydroxybutyl)-amide], 8 ± 1 µM; with `O=S(=O)(NCCCCO)c1ccc(-c2ccc(C(F)(F)F)cc2)cc1F` [ABD-302, 3-Fluoro-4′-trifluoromethylbiphenyl-4-sulfonic acid-(4-hydroxybutyl)-amide], 5.5 ± 1.5 µM. On to `O=S(=O)(NCCCCO)c1ccc(-c2ccc(F)cc2)cc1` [ABD-200, 4′-Fluorobiphenyl-4-sulfonic acid-(4-hydroxybutyl)-amide], for which the IC50 came out at 8 ± 2.5 µM. Consider `Cc1cccc(-c2ccc(S(=O)(=O)NCCCCO)cc2)c1` [ABD-308, 3′-Methylbiphenyl-4-sulfonic acid-(4-hydroxybutyl)-amide], for which the IC50 was found to be 28 ± 3 µM.
